± gives the expanded uncertainty stated by the source.
Columns and labels:
[1] = relative permittivity at various frequencies (dimensionless); xn = mol fraction of the nth substance listed; conditions: 99 kPa, Liquid, Frequency=2 MHz, Parallel plate capacitor, x1 = 1
[2] = refractive index (Na D-line) (dimensionless); xn = mol fraction of the nth substance listed; conditions: 99 kPa, Liquid, Abbe refractometer, x1 = 1
[3] = relative permittivity at various frequencies (dimensionless); conditions: 99 kPa, Liquid, Frequency=2 MHz, Parallel plate capacitor
[4] = refractive index (Na D-line) (dimensionless); conditions: 298.15 K; 101.33 kPa; Liquid; Abbe refractometer

## CCCCCCC [heptane] + CC(C)CCl
[1]; 283.15 K
  relative permittivity: 1.943 ± 0.019
[1]; 298.15 K
  relative permittivity: 1.923 ± 0.019
[1]; 313.15 K
  relative permittivity: 1.902 ± 0.019
[2]; 283.15 K
  refractive index: 1.3929 ± 0.00031
[2]; 298.15 K
  refractive index: 1.3852 ± 0.00031
[2]; 313.15 K
  refractive index: 1.37735 ± 0.00031

## CCCCCCC [heptane] + CC(C)(C)Cl
[1]; 283.15 K
  relative permittivity: 1.943 ± 0.019
[1]; 298.15 K
  relative permittivity: 1.923 ± 0.019
[1]; 313.15 K
  relative permittivity: 1.902 ± 0.019
[2]; 283.15 K
  refractive index: 1.3929 ± 0.00031
[2]; 298.15 K
  refractive index: 1.3852 ± 0.00031
[2]; 313.15 K
  refractive index: 1.37735 ± 0.00031

## CCCCCCC [heptane] + CCC(C)Cl
[1]; 283.15 K
  relative permittivity: 1.943 ± 0.019
[1]; 298.15 K
  relative permittivity: 1.923 ± 0.019
[1]; 313.15 K
  relative permittivity: 1.902 ± 0.019
[2]; 283.15 K
  refractive index: 1.3929 ± 0.00031
[2]; 298.15 K
  refractive index: 1.3852 ± 0.00031
[2]; 313.15 K
  refractive index: 1.37735 ± 0.00031

## CCCCCC [hexane] + CCC(C)Cl
[1]; 283.15 K
  relative permittivity: 1.905 ± 0.019
[1]; 298.15 K
  relative permittivity: 1.892 ± 0.019
[1]; 313.15 K
  relative permittivity: 1.873 ± 0.019
[2]; 283.15 K
  refractive index: 1.3805 ± 0.00031
[2]; 298.15 K
  refractive index: 1.37223 ± 0.00031
[2]; 313.15 K
  refractive index: 1.36391 ± 0.00031

## CCC(C)Cl (configuration not stated) [2-chlorobutane]
[3]; 283.15 K
  relative permittivity: 9.323 ± 0.093
[3]; 298.15 K
  relative permittivity: 8.652 ± 0.087
[3]; 313.15 K
  relative permittivity: 8.07 ± 0.081

## CCCCCCC [heptane] + CCCCCl
[1]; 283.15 K
  relative permittivity: 1.943 ± 0.019
[1]; 298.15 K
  relative permittivity: 1.923 ± 0.019
[1]; 313.15 K
  relative permittivity: 1.902 ± 0.019
[2]; 283.15 K
  refractive index: 1.3929 ± 0.00031
[2]; 298.15 K
  refractive index: 1.3852 ± 0.00031
[2]; 313.15 K
  refractive index: 1.37735 ± 0.00031

## CC(C)CCl [1-chloro-2-methylpropane]
[3]; 283.15 K
  relative permittivity: 7.472 ± 0.075
[3]; 298.15 K
  relative permittivity: 7.074 ± 0.071
[3]; 313.15 K
  relative permittivity: 6.657 ± 0.067

## CC(C)(C)Cl [2-chloro-2-methylpropane]
[3]; 283.15 K
  relative permittivity: 10.429 ± 0.1
[3]; 298.15 K
  relative permittivity: 9.67 ± 0.097
[3]; 313.15 K
  relative permittivity: 8.952 ± 0.09

## CCCCCl [1-chlorobutane]
[3]; 283.15 K
  relative permittivity: 7.552 ± 0.076
[3]; 298.15 K
  relative permittivity: 7.157 ± 0.072
[3]; 313.15 K
  relative permittivity: 6.757 ± 0.068

## CCCCCC [hexane] + CCCCCl
[1]; 283.15 K
  relative permittivity: 1.905 ± 0.019
[1]; 298.15 K
  relative permittivity: 1.892 ± 0.019
[1]; 313.15 K
  relative permittivity: 1.873 ± 0.019
[2]; 283.15 K
  refractive index: 1.3805 ± 0.00031
[2]; 298.15 K
  refractive index: 1.37223 ± 0.00031
[2]; 313.15 K
  refractive index: 1.36391 ± 0.00031

## CCCCCC [hexane] + CC(C)CCl
[1]; 283.15 K
  relative permittivity: 1.905 ± 0.019
[1]; 298.15 K
  relative permittivity: 1.892 ± 0.019
[1]; 313.15 K
  relative permittivity: 1.873 ± 0.019
[2]; 283.15 K
  refractive index: 1.3805 ± 0.00031
[2]; 298.15 K
  refractive index: 1.37223 ± 0.00031
[2]; 313.15 K
  refractive index: 1.36391 ± 0.00031

## CCCCCC [hexane]
[4]
  refractive index: 1.37223 ± 0.00031
[3]; 283.15 K
  relative permittivity: 1.905 ± 0.019
[3]; 298.15 K
  relative permittivity: 1.892 ± 0.019
[3]; 313.15 K
  relative permittivity: 1.873 ± 0.019

## CCCCCCC [heptane]
[3]; 283.15 K
  relative permittivity: 1.943 ± 0.019
[3]; 298.15 K
  relative permittivity: 1.923 ± 0.019
[3]; 313.15 K
  relative permittivity: 1.902 ± 0.019

## CCCCCC [hexane] + CC(C)(C)Cl
[1]; 283.15 K
  relative permittivity: 1.905 ± 0.019
[1]; 298.15 K
  relative permittivity: 1.892 ± 0.019
[1]; 313.15 K
  relative permittivity: 1.873 ± 0.019
[2]; 283.15 K
  refractive index: 1.3805 ± 0.00031
[2]; 298.15 K
  refractive index: 1.37223 ± 0.00031
[2]; 313.15 K
  refractive index: 1.36391 ± 0.00031

From the NIST ThermoML archive (doi:10.1016/j.jct.2015.03.001)
